According to patent US20140377340A1, “HLA-DR BINDING PEPTIDES AND THEIR USES” (priority 2007, published 2014):

Legend:
purified HLA DRB3*0101 = biological target: T1, purified HLA DRB3*0101 (Homo sapiens, UniProt P01903+P79483); test: HLA-DR radioligand binding inhibition assay, DRB3*0101; conditions: IC50 nM purified HLA DRB3 *0101, purified HLA DRB3*0101
T1 construct: purified from EBV transformed homozygous cell lines or single MHC allele transfected 721.221, C1R, or fibroblast lines; made in house
Experimental: (§1) Instead, wells of an opaque white 96-well Optiplate (Packard) are coated with 3 μg (100 μl@ 30 μg/ml) of HLA-specific antibody (Ab) that “capture” complexes of radiolabeled MHC and unlabeled peptide transferred from the molecular binding assay plate in 100 μl of 0.05% NP40/PBS. After a 3-hour incubation period, the supernatant is decanted and scintillation fluid (Microscint 20) added. Captured complexes are then measured on a microplate scintillation and luminescence counter (TopCount NXTTM; Packard).
(§2) HLA-DR purification. Fifteen distinct HLA-DR molecules were used in quantitative assays to measure the binding of peptides to solubilized HLA-DR molecules. […] Briefly, columns of inactivated Sepharose CL4B and Protein A Sepharose were used as pre-columns. HLA-DR molecules were captured by passage of lysates over LB3.1 monoclonal antibody (anti-HLA-DRA) columns. Antibody columns were washed with 10 mM Tris-HCL, pH8.0 with 1% (v/v) NP-40, followed by PBS containing 0.4% (w/v) n-octylglucoside. […] The pH was reduced to 8.0 and the eluates were concentrated by centrifugation in Centriprep 30 concentrators at 2000 rpm (Amicon, Beverly, Mass.).
(§3) Briefly, 1-10 nM of radiolabeled peptide was co-incubated for 2 days at either room temperature or 37° C. with 1 μM to 1 nM purified HLA-DR molecules in the presence of a cocktail of protease inhibitors. Assays were performed at various pH conditions, ranging from pH 4 to pH 7. […] After incubation, the percentage of HLA-DR-bound radioactivity is determined by capturing HLA-DR/peptide complexes on Optiplates (Packard Instruments, Meriden, Conn.) coated with the LB3.1 antibody and determining bound counts per minute using the TopCount microscintillation counter (Packard Instruments). […] Competitor peptides are tested in 2-4 complete, independent experiments, at concentrations ranging from […].

purified HLA DRB1*1302 = biological target: T2, purified HLA DRB1*1302 (Homo sapiens, UniProt P01903+P01911, A100E/A169T/K41T/L162R/M171V/P40S/Q125H/Q178H/Q39Y/Q99D/R42S/S66N/T262R/V115G/W38E/Y61H); test: HLA-DR radioligand binding inhibition assay, DRB1*1302
T2 construct: purified from EBV transformed homozygous cell lines or single MHC allele transfected 721.221, C1R, or fibroblast lines; made in house
Summary of the method: (§4)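 First, HLA-DR was purified from lysates on LB3.1 columns. Then 1 μM to 1 nM protein was incubated 2 days with 1-10 nM radiolabeled peptide at pH 4 to 7. Finally, complexes were captured for 3 hours and bound cpm determined.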

purified HLA DRB1*0404 = biological target: T3, purified HLA DRB1*0404 (Homo sapiens, UniProt P01903+P01911, A100R/A169T/F76Y/I96L/K127E/L162R/M171V/N62H/P40V/Q125Y/R42H/S133A/S149N/S66Y/V209L/W38E); test: HLA-DR radioligand binding inhibition assay, DRB1*0404; conditions: IC50 nM purified HLA DRB1 *0404, purified HLA DRB1*0404
T3 construct: purified from EBV transformed homozygous cell lines or single MHC allele transfected 721.221, C1R, or fibroblast lines; made in house
Summary of the method: as §4

purified HLA DRB1*1101 = biological target: T4, purified HLA DRB1*1101 (Homo sapiens, UniProt P01903+P01911, A100R/A169T/A87E/I96F/K41T/L162R/M171V/P40S/Q125H/Q178H/Q39Y/Q99D/R42S/S66Y/T262R/V115G/W38E); test: HLA-DR radioligand binding inhibition assay, DRB1*1101; conditions: IC50 nM purified HLA DRB1 *1101, purified HLA DRB1*1101
T4 construct: purified from EBV transformed homozygous cell lines or single MHC allele transfected 721.221, C1R, or fibroblast lines; made in house
Summary of the method: as §4

purified HLA DRB1*0701 = biological target: T5, purified HLA DRB1*0701 (Homo sapiens, UniProt P01903+P01911, A100R/A102G/A103Q/D57E/D86V/E43K/F76Y/K127E/L162R/M171V/P40G/Q125H/Q99D/R33Q/R42Y/R54Q/S133A/S66F/T210M/V115G/Y107V/Y59L/Y89S); test: HLA-DR radioligand binding inhibition assay, DRB1*0701; conditions: IC50 nM purified HLA DRB1 *0701, purified HLA DRB1*0701
T5 construct: purified from EBV transformed homozygous cell lines or single MHC allele transfected 721.221, C1R, or fibroblast lines; made in house
Summary of the method: as §4

purified HLA DRB1*0802 = biological target: T6, purified HLA DRB1*0802 (Homo sapiens, UniProt P01903+P01911, A100R/A103L/A169T/F76Y/H45Y/I96F/K41T/L162R/M171V/P40S/Q125H/Q178H/Q39Y/Q99D/R218S/R42G/S66Y/V115G/W38E); test: HLA-DR radioligand binding inhibition assay, DRB1*0802; conditions: IC50 nM purified HLA DRB1 *0802, purified HLA DRB1*0802
T6 construct: purified from EBV transformed homozygous cell lines or single MHC allele transfected 721.221, C1R, or fibroblast lines; made in house
Experimental: as §1, §2, §3

purified HLA DRB1*0901 = biological target: T7, purified HLA DRB1*0901 (Homo sapiens, UniProt P01903+P01911, A100R/A103E/D57H/D86V/F55Y/F60I/F76Y/I96F/K127E/L162R/M171V/P40D/Q125H/Q99R/R33Q/R42F/S133A/S66N/T210M/V115G/W38K/Y107V/Y59G/Y89S); test: HLA-DR radioligand binding inhibition assay, DRB1*0901; conditions: IC50 nM purified HLA DRB1 *0901, purified HLA DRB1*0901
T7 construct: purified from EBV transformed homozygous cell lines or single MHC allele transfected 721.221, C1R, or fibroblast lines; made in house
Experimental: as §1
HLA-DR purification. Fifteen distinct HLA-DR molecules were used in quantitative assays to measure the binding of peptides to solubilized HLA-DR molecules. […] Briefly, columns of inactivated Sepharose CL4B and Protein A Sepharose were used as pre-columns. HLA-DR molecules were captured by passage of lysates over LB3.1 monoclonal antibody (anti-HLA-DRA) columns. Antibody columns were washed with 10 mM Tris-HCL, pH8.0 with 1% (v/v) NP-40, followed by PBS containing 0.4% (w/v) n-octylglucoside.
Briefly, 1-10 nM of radiolabeled peptide was co-incubated for 2 days at either room temperature or 37° C. with 1 μM to 1 nM purified HLA-DR molecules in the presence of a cocktail of protease inhibitors. Assays were performed at various pH conditions, ranging from pH 4 to pH 7. […] After incubation, the percentage of HLA-DR-bound radioactivity is determined by capturing HLA-DR/peptide complexes on Optiplates (Packard Instruments, Meriden, Conn.) coated with the LB3.1 antibody and determining bound counts per minute using the TopCount microscintillation counter (Packard Instruments).

purified HLA DRB1*1201 = biological target: T8, purified HLA DRB1*1201 (Homo sapiens, UniProt P01903+P01911, A100R/A169T/D57E/D86V/F55L/H45Y/K41T/L162R/M171V/P40S/Q125H/Q178H/Q39Y/Q99D/R42G/S66L/T262R/V114A/V67L/W38E/Y59H/Y61H/Y89S); test: HLA-DR radioligand binding inhibition assay, DRB1*1201
T8 construct: purified from EBV transformed homozygous cell lines or single MHC allele transfected 721.221, C1R, or fibroblast lines; made in house
Experimental: as §1, §2, §3

purified HLA DRB1*0405 = biological target: T9, purified HLA DRB1*0405 (Homo sapiens, UniProt P01903+P01911, A100R/A169T/D86S/F76Y/I96L/K127E/L162R/M171V/N62H/P40V/Q125Y/R42H/S133A/S149N/S66Y/V115G/V209L/W38E); test: HLA-DR radioligand binding inhibition assay, DRB1*0405; conditions: IC50 nM purified HLA DRB1 *0405, purified HLA DRB1*0405
T9 construct: purified from EBV transformed homozygous cell lines or single MHC allele transfected 721.221, C1R, or fibroblast lines; made in house
Summary of the method: as §4

purified HLA DRB5*0101 = biological target: T10, purified HLA DRB5*0101 (Homo sapiens, UniProt P01903+Q30154); test: HLA-DR radioligand binding inhibition assay, DRB5*0101; conditions: IC50 nM purified HLA DRB5 *0101, purified HLA DRB5*0101
T10 construct: purified from EBV transformed homozygous cell lines or single MHC allele transfected 721.221, C1R, or fibroblast lines; made in house
Summary of the method: as §4

T4 sequence (P01903 26-254, other chains not shown): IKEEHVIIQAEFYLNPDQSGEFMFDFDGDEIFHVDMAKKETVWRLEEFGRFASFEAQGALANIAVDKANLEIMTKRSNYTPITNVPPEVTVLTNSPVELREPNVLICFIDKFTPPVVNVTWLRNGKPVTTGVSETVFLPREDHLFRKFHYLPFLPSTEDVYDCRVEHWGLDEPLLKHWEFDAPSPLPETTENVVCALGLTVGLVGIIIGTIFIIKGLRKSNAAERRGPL

IC50 (purified HLA DRB3*0101) [nM] | IC50 (purified HLA DRB1*1302) [nM] | IC50 (purified HLA DRB1*0404) [nM] | IC50 (purified HLA DRB1*1101) [nM] | IC50 (purified HLA DRB1*0701) [nM] | IC50 (purified HLA DRB1*0802) [nM] | IC50 (purified HLA DRB1*0901) [nM] | IC50 (purified HLA DRB1*1201) [nM] | IC50 (purified HLA DRB1*0405) [nM] | IC50 (purified HLA DRB5*0101) [nM] | Structure (SMILES)
> 20000 | > 20000 | > 20000 | > 20000 | > 20000 | > 20000 | > 20000 | > 20000 | > 20000 |  | CC[C@H](C)[C@H](NC(=O)[C@H](CS)NC(=O)[C@H](CC(C)C)NC(=O)[C@H](CCCCN)NC(=O)[C@H](CCC(=O)O)NC(=O)[C@H](C)NC(=O)[C@@H](NC(=O)[C@H](CC(C)C)NC(=O)[C@@H]1CCCN1C(=O)[C@@H](NC(=O)[C@@H](N)[C@@H](C)O)[C@@H](C)CC)[C@@H](C)O)C(=O)N[C@@H](Cc1ccc(O)cc1)C(=O)N[C@H](C(=O)N[C@@H](CC(=O)O)C(=O)N[C@@H](CC(N)=O)C(=O)O)[C@@H](C)O [Peptide 1622.01]
> 20000 |  |  |  | 3890 | > 20000 | > 20000 | > 20000 | 37 | > 20000 | CC[C@H](C)[C@H](NC(=O)[C@@H](NC(=O)[C@H](Cc1c[nH]cn1)NC(=O)[C@@H](N)CC(C)C)C(C)C)C(=O)N[C@@H](CCCCN)C(=O)N[C@@H](CO)C(=O)N[C@@H](CC(=O)O)C(=O)N[C@@H](CC(C)C)C(=O)N[C@H](C(=O)N[C@@H](CC(N)=O)C(=O)N[C@@H](CCC(=O)O)C(=O)N[C@@H](CCC(=O)O)C(=O)N[C@@H](C)C(=O)N[C@H](C(=O)NCC(=O)O)[C@@H](C)O)C(C)C [Peptide 9019.0005]
